Patent US20200270588A1, “GLUCOSYL TRANSFERASE POLYPEPTIDES AND METHODS OF USE” (Syngenta Participations AG, priority 2017, published 2020)
Values joined by “and” are separate entries in the source; they are usually repeats but may differ in a detail not shown here. Equal values may be shown once.

Experiments:
[1] = test system: transgenic tobacco plants expressing zmBX9 (SEQ ID No 1); experiment: Glass house spray test on tobacco, percent damage; assay type: in vivo; conditions: for percent damage: 14 DAT, tobacco expressing SEQ ID NO 1, lines 6266 and 6291, clonal plants A-E
Procedure: In the present example, Zea mays BX8 or BX9 or orthologues of BX8/9, for example SEQ ID Nos. 1-59 and various herbicide-active mutations and combinations of mutations thereof (e.g. as listed in Tables 1-9) are expressed in transgenic tobacco. DNA sequences that encode these polypeptides (optimized for tobacco or, optionally, codon optimized according to a target crop such as soybean) are prepared synthetically and obtained commercially from Genewiz (South Plainfield, USA). Each sequence is designed to include a 5′ fusion with TMV omega 5′ leader (SEQ ID NO: 109). The DNA sequences are flanked at the 5′ end with XhoI and at the 3′ end with KpnI to facilitate direct cloning into a suitable binary vector for Agrobacterium-based plant transformation.
In a particular example, the expression cassette, comprising the TMV omega 5′ leader and a BX encoding gene of interest is excised using XhoI/KpnI and cloned into similarly digested pBIN 19 (Bevan, Nucl. Acids Res. (1984) behind a double enhanced 35S promoter (SEQ ID NO:110) and ahead of a NOS 3′ transcription terminator (SEQ ID NO:111) and then transformed into E. coli DH5 alpha competent cells (see FIG. 5). DNA recovered from the E. coli is used to transform Agrobacterium tumefaciens LBA4404, and the transformed bacteria are selected on media contain rifampicin and kanamycin. Tobacco tissue is subjected to Agrobacterium-mediated transformation using methods well described in the art or as described herein. For example, a master plate of Agrobacterium tumefaciens containing the BX glucosyltransferase expressing binary vector is used to inoculate 10 ml LB (L broth) containing 100 mg/l Rifampicin plus 50 mg/l Kanamycin using a single bacterial colony. This is incubated overnight at 28° C. shaking at 200 rpm. This entire overnight culture is used to inoculate a 50 ml volume of LB containing the same antibiotics. Again this is cultured overnight at 28° C. shaking at 200 rpm. The Agrobacterium cells are pelleted by centrifuging at 3000 rpm for 15 minutes and then resuspended in MS (Murashige and Skoog) medium containing 30 g/l sucrose, pH 5.9 to an OD (600 nM)=0.6. This suspension is dispensed in 25 ml aliquots into petri dishes.
Once rooted, plantlets are transferred from agar and potted into 50% peat, 50% John Innes Soil No. 3 with slow-release fertilizer in 3 inch round pots and left regularly watered to establish for 8-12d in the glass house. Glass house conditions are about 24-27° C. day; 18-21° C. night and approximately a 14h photoperiod. […]
Three transgenic populations of about forty tobacco plants and comprising, a glucosyl transferase gene encoding either zmBX8 (SEQ ID NO 2) or zmBX9 (SEQ ID NO 1) were thus produced. […] Plants were assessed for damage and scored at 7 and 14 days after treatment (DAT). […]

[2] = test system: SEQ ID 43, mutant bx-type glucosyl transferase; experiment: LC/MS glucosyl transferase assay (glucoside peak area), purified enzyme; assay type: biochemical; conditions: about 60 min, ~15 pmol enzyme, nd = not detectable
Procedure: (§1) In an alternative method for assaying the various enzymes, the test glucosyl transferase enzyme is reacted with substrates exactly as above except that the assay is stopped by adding an equal volume of acetonitrile. Alternatively 50 or 100 μl samples from assay reactions are added to 500 μl ethyl acetate to stop the reaction. In this case samples are then vortexed and 400 μl of the ethyl acetate partition removed, dried down, and resuspended in 100 μl 80:20 acetonitrile/water. The formation of product gluco side and/or disappearance of substrate test herbicide is then monitored directly by LC/MS. Samples are analyzed by LC-MS using an Agilent 1290 liquid chromatography system and Thermo Q-Exactive mass spectrometer. The chromatography is achieved on a Waters Acquity C18 BEH (50×2.1 mm) 1.7 μm particle size column, using a 6 minute gradient run of Water (0.2% formic acid) and Acetonitrile. The Q-Exactive is operated in positive ionisation electrospray mode, using Full scan-AIF mode, at 35,000 resolution, between 100-800 m/z. All analytes are identified from the full scan data to within at least 5 ppm accuracy of their predicted pseudo-molecular ion [M+H]^+ m/z value. In order to obtain quantitative data standard curves are run using herbicides and herbicide glucosides synthesized as standards. Where these synthetic glucosides were not available the LC/MS assay could only be used to provide relative data.
(§2) DNA sequences, optimized for E. coli codon usage, were cloned, expressed and the various proteins purified and assayed as described in the foregoing examples. Using the UDP assay (as described in examples 1, 3 and 6) the data obtained from the Zea mays bx8 w/t protein and its variants was noisy due to relatively high background rates in DMSO reagent blanks. The values reported in the table 15 were thus monitored by LC/MS as described in example 1.

[3] = test system: SEQ ID 45, mutant bx-type glucosyl transferase; experiment: as above; assay type: biochemical; conditions: about 60 min, ~15 pmol enzyme, nd = not detectable
Procedure: as §1, §2

[4] = target: T1, SEQ ID 35, mutant bx-type glucosyl transferase (Zea mays, UniProt Q8W2B7, A437P); experiment: as above; assay type: biochemical; conditions: about 60 min, ~15 pmol enzyme, relative quantification only
T1 construct: 35; 3.66E+05; 8.20E+07; 5.96E+06; His tag; made in house
Procedure: as §1, §2

T1 sequence (Q8W2B7 whole entry A437P): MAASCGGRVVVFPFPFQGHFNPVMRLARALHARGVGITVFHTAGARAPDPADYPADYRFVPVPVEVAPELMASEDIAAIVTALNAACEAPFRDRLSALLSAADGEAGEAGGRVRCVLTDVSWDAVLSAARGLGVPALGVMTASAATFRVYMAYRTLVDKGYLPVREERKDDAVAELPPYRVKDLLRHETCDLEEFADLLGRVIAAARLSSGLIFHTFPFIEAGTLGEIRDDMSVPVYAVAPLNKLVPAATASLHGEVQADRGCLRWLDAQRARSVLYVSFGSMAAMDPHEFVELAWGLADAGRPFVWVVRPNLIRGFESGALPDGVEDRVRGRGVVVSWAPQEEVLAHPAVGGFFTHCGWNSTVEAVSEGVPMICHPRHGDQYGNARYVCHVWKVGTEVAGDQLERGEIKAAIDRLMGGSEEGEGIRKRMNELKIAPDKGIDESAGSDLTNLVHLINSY

SMILES | tolerance ([1]; 30 g/ha, several transgenic lines) | percent damage ([1]; 500 gai/ha VI) | tolerance ([1]; high rates, best two events) | percent damage ([1]; 500 gai/ha V) | integrated peak area of beta-glucoside product [2] | integrated peak area of beta-glucoside product [3] | integrated peak area of beta-glucoside product [4]
CON1C(=O)N(c2cc(C(F)(F)F)ccn2)C(O)[C@@H]1C (stereo partly shown) [Compound VI] | demonstrate tolerance | 95% and 90% and 100% and 60% and 70% and 75% and 80% | only partial tolerance |  |  |  | 
CN1CC(O)N(c2cc(C(F)(F)F)ccn2)C1=O (stereo not shown) [Compound V] |  |  |  | 100% and 80% | 3.88E+05 and 2.26E+05 | 1.56E+05 and 9.51E+04 | 5.96E+06 and 4.40E+06
